Laboratory results reported in patent US20160030391A1, “METHODS AND COMPOSITIONS FOR IMPROVING COGNITIVE FUNCTION” (THE JOHNS HOPKINS UNIVERSITY, priority 2013, published 2016).

Experiments:
aMCI subjects = assay: explicit 3-alternative forced choice task; type: in vivo, human
Excerpt: See Folstein et al., J Psychiatric Res 12: 189-98, (1975); Robbins et al., Dementia 5: 266-81, (1994); Rey, L′examen clinique en psychologie, (1964); Kluger et al., J Geriatr Psychiatry Neurol 12:168-79, (1999); Marquis et al., 2002 and Masur et al., 1994. Also see Buchanan, R. W., Keefe, R. S. E., Umbricht, D., Green, M. F., Laughren, T., and Marder, S. R. (2011) The FDA-NIMH-MATRICS guidelines for clinical trial design of cognitive-enhancing drugs: what do we know 5 years later? Schizophr. Bull. 37, 1209-1217. Another example of a cognitive test in humans is the explicit 3-alternative forced choice task. In this test, subjects are presented with color photographs of common objects consisting of a mix of three types of image pairs: similar pairs, identical pairs and unrelated foils. The second of the pair of similar objects is referred to as the “lure”. These image pairs are fully randomized and presented individually as a series of images. Subjects are instructed to make a judgment as to whether the objects seen are new, old or similar. A “similar” response to the presentation of a lure stimulus indicates successful memory retrieval by the subject.
The activity of the subject's medial temporal lobe is measured by functional MRI during the subject's participation in an explicit 3-alternative forced choice task, where participants view novel, repeated and similar (“lure”) stimuli. The Psychophysics Toolbox extensions in Matlab 7.0 (The MathWorks, Natick, Mass.) is used for stimulus presentation and behavioral data collection. Stimuli are color photographs of common objects. Each participant undergoes a series of testing runs during the functional imaging sessions, each run consisting of a mix of three types of image pairs: similar pairs, identical pairs and unrelated foils. These image pairs are fully randomized throughout the run and presented individually as a series of images (see FIG. 10A). Participants are instructed to make a judgment as to whether each object seen is new, old or similar. […]

[1] = test system: entorhinal cortex of aMCI subjects; assay: fMRI activity in entorhinal cortex during lure stimuli correctly identified as similar; type: in vivo, human; details: levetiracetam 125 mg twice a day for two weeks vs placebo
Excerpt: As described above, the drug treatment period is the two weeks preceding Visit 1 or 2 (with the two week period preceding the other Visit being the placebo phase). […] Imaging data are obtained through high-resolution methods developed in the Stark laboratory. Data are collected on a Phillips 3 Tesla scanner (Eindhoven, The Netherlands) equipped with an 8-channel SENSE (Sensitivity Encoding) head coil, located at the F.M. Kirby Research Center for Functional Brain Imaging at the Kennedy Krieger Institute (Baltimore, Md.). High-resolution echo-planar images are collected using an acquisition matrix of 64×64, a repetition time of 1500 milliseconds, an echo time of 30 milliseconds, a […] of 70 degrees, a SENSE factor of 2, and an isotropic resolution of 1.5 mm×1.5 mm x 1.5 mm with no gap. Nineteen oblique slices are acquired parallel to the principal longitudinal axis of the hippocampus and covered the entire medial temporal lobe region bilaterally. […] Group data are analyzed using a two-way Analysis of Variance (ANOVA) with trial types and group as fixed factors, and subject as a random factor nested within group. […] The activity of the subject's medial temporal lobe is measured by functional MRI during the subject's participation in an explicit 3-alternative forced choice task, where participants view novel, repeated and similar (“lure”) stimuli. […]

CC[C@@H](C(N)=O)N1CCCC1=O [levetiracetam, (2S)-2-(2-oxopyrrolidin-1-yl)butanamide]
performance in the explicit 3-alternative forced choice task (aMCI subjects; levetiracetam 62.5 mg BID for two weeks): improves significantly
performance in the explicit 3-alternative forced choice task (aMCI subjects; levetiracetam 125 mg twice a day for two weeks vs placebo): improves significantly
performance in the explicit 3-alternative forced choice task (aMCI subjects; levetiracetam 250 mg BID for two weeks): does not significantly improve
EC activity during memory judgments (fMRI) [1]: increases EC activity
